For assay [1], the target named is T1, Tet(55) (Unknown prokaryotic organism, UniProt A0A0H4TXY1). The assay can be described thus: biochemical.
The target in assay [2] is T2, Tet(X) (Bacteroides thetaiotaomicron, UniProt Q93L51). The conditions noted are these: by Tet(X); cited from earlier work.
The target of assay [3] is T3, Tet(56) (Legionella longbeachae serogroup 1, UniProt D3HKY4). The assay can be described thus: biochemical.
The target of assay [4] is T2, Tet(X). The format is biochemical. The note with it: 1 mM anhydrotetracycline, 0.1 mM tetracycline.
The target of assay [5] is T1, Tet(55). The assay can be described thus: biochemical. The source holds these as a separate data set.
The subject of another assay is L. longbeacheae. The format is cell-based.
The target in assay [6] is T3, Tet(56). The assay is classed as biochemical, L. longbeachae. The conditions noted are these: 1 mM anhydrotetracycline, 0.1 mM tetracycline.
The target of assay [7] is T4, Tet(50) (Unknown prokaryotic organism, UniProt A0A059WYP6). The assay is classed as biochemical. The note with it: 1 mM anhydrotetracycline, 0.1 mM tetracycline.
The next assay deals with Tet(47-56). The conditions noted are these: by Tet(47-56); cited from earlier work.
The subject of a further assay is Tet(51). The assay is classed as biochemical. The note with it: 1 mM anhydrotetracycline, 0.1 mM tetracycline.
The target of assay [8] is T4, Tet(50). Put plainly: biochemical.
For assay [9], the target named is T1, Tet(55). The assay is classed as biochemical. The conditions noted are these: 1 mM anhydrotetracycline, 0.1 mM tetracycline.

As a reminder, the IC50 is the concentration at which inhibition is half-maximal.

“Also recorded” adds a separate entry of the source. Like-named read-outs stand apart in the source and are kept apart here.

In turn, `Cc1c2c(c(O)c3c(O)ccc(Cl)c13)C(=O)[C@]1(O)C(=O)C(C(N)=O)=C(O)[C@@H](N(C)C)[C@@H]1C2` [anhydrochlortetracycline, (4S,4aS,12aS)-7-chloro-4-(dimethylamino)-3,10,11,12a-tetrahydroxy-6-methyl-1,12-dioxo-1,4,4a,5,12,12a-hexahydrotetracene-2-carboxamide] registered an IC50 on Tet(55) [1] of 9 ± 1 µM.
At Tet(55) [1], `CN(C)[C@@H]1C(O)=C(C(N)=O)C(=O)[C@@]2(O)C(=O)c3c(cc4c(Cl)ccc(O)c4c3O)C[C@@H]12` [anhydrodemeclocycline, (4S,4aS,12aS)-7-chloro-4-(dimethylamino)-3,10,11,12a-tetrahydroxy-1,12-dioxo-1,4,4a,5,12,12a-hexahydrotetracene-2-carboxamide] had an IC50 of 9 ± 1 µM.
Still for that read-out and setting: as for `Cc1c2c(c(O)c3c(O)ccc(I)c13)C(=O)[C@]1(O)C(=O)C(C(N)=O)=C(O)[C@@H](N(C)C)[C@@H]1C2` [anhydroiodotetracycline, (4S,4aS,12aS)-4-(dimethylamino)-3,10,11,12a-tetrahydroxy-7-iodo-6-methyl-1,12-dioxo-1,4,4a,5,12,12a-hexahydrotetracene-2-carboxamide], the figure is 6 ± 1 µM.
For the compound `Cc1c2c(c(O)c3c(O)cccc13)C(=O)[C@]1(O)C(=O)C(C(N)=O)=C(O)[C@@H](N(C)C)[C@@H]1C2` [anhydrotetracycline], the enzymatic degradation entry is listed as “slowly degraded” on Tet(X) [2] and “not degraded” with Tet(47-56). The IC50 at Tet(56) [3] came out at 37.1 ± 1.1 µM; at Tet(55) [5], 25.6 ± 1.2 µM; at Tet(50) [8] it was 83.2 ± 1.2 µM. Besides, the “effect on enzymatic tetracycline degradation (HPLC)” value is listed as “able to prevent tetracycline degradation; also recorded: sufficient to decrease or prevent tetracycline degradation” at Tet(X) [4]; “tetracycline is not degraded” on Tet(56) [6]; “sufficient to decrease or prevent tetracycline degradation” on Tet(50) [7]; “sufficient to decrease or prevent tetracycline degradation” in the assay on Tet(51); “sufficient to decrease or prevent tetracycline degradation” on Tet(55) [9]. Moreover, the synergy with tetracycline entry with L. longbeacheae is listed as “synergy was not observed”.

These data come from patent publication US10273468B2 (priority 2016, dated 2019).
